Test results reported in the NIST ThermoML archive (doi:10.1016/j.jct.2015.08.011).

Experiments:
[1] = 101.33 kPa, Liquid, Vibrating tube method
[2] = excess molar enthalpy (molar enthalpy of mixing); xn = mol fraction of the nth substance listed; details: 298.15 K, 101 kPa, Liquid, Flow calorimetry

COC(C)(C)CC(C)(C)C [methyl 1,1,3,3-tetramethylbutyl ether]
[1]
Details | mass density [kg/m3]
298.15 K | 792.4
308.15 K | 784.1
318.15 K | 776
328.15 K | 767.6
338.15 K | 759.2
348.15 K | 750.7
358.15 K | 742.1
368.15 K | 733.4
378.15 K | 724.5
388.15 K | 715.5
398.15 K | 706.3
408.16 K | 696.8

COC(C)(C)CC(C)(C)C [methyl 1,1,3,3-tetramethylbutyl ether] + CO
[2]
Details | excess molar enthalpy [kcal/mol]
x2 = 0.051 | 0.0476
x2 = 0.097 | 0.0767
x2 = 0.193 | 0.11
x2 = 0.299 | 0.126
x2 = 0.391 | 0.128
x2 = 0.489 | 0.124
x2 = 0.591 | 0.112
x2 = 0.695 | 0.0966
x2 = 0.794 | 0.0736
x2 = 0.896 | 0.0425

CO [methanol]
Details | mass density [kg/m3]
[1], 298.15 K | 786.2
